Measured values as given in patent US10689383B2, “Optionally fused heterocyclyl-substituted derivatives of pyrimidine useful for the treatment of inflammatory, metabolic, oncologic and autoimmune diseases” (NUEVOLUTION A/S, priority 2014, dated 2020).

Legend:
[1] = biological target: T1, human RORγt (Ligand Binding Domain) (Homo sapiens, UniProt P51449); experiment: Fluorescence Polarization (FP) Assay; conditions: Fluorescence Polarization (FP) Assay; values given as upper bounds of activity ranges; read-out: FP activity range
T1 construct: purchased Crelux (Planegg, Germany) batch no PC5032-1
T1 sequence (P51449 269-508 limits assumed): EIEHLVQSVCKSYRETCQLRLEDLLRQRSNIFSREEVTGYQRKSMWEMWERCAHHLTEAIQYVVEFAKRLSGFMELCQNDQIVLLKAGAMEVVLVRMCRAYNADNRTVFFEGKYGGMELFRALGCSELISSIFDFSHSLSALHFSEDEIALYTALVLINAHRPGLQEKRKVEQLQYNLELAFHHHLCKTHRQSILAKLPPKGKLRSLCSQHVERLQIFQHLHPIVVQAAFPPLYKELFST
Summary of the method: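 Binding to the ligand pocket followed by fluorescence polarization with a TAMRA-tagged RORγt ligand probe of 910 g/mole. Negative control wells received DMSO only.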

[2] = biological target: T2, yeast Gal4-DNA binding domain fused to the ligand binding domain of human RORγ (Homo sapiens, UniProt P51449); experiment: RORγ Reporter Assay (Gal4); type: cell-based; conditions: values given as lower bounds of ranges; for Gal4 activity range @ 0.1 μM (% inhibition): RORγ Reporter Assay (Gal4) at 0.1 μM; for Gal4 activity range @ 1 μM (% inhibition): RORγ Reporter Assay (Gal4) at 1 μM
T2 construct: host or cells: HEK293t
T2 sequence (P51449 269-508 limits assumed): T1 sequence (P51449 269-508 limits assumed)
Summary of the method: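 Compound at final 1,000 or 100 nM (0.1% DMSO, triplicate) was added to the transfected HEK293t cells carrying a Gal4-UAS luciferase reporter for 24 h at 37 °C, 10% charcoal-stripped FBS. Activity reduction expressed as percent of vehicle-only luciferase signal.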

Row | SMILES | IC50 [1] [µM] | Gal4 activity range @ 0.1 μM (% inhibition) [2] [% inhibition] | Gal4 activity range @ 1 μM (% inhibition) [2] [% inhibition]
1 | CC1(CNc2ncnc(N3CCCC3c3ccc(C(F)(F)F)cc3)c2F)CCC1 (centres unmarked) [Example 152, 5-fluoro-N-[(1-methylcyclobutyl)methyl]-6-[2-[4-(trifluoromethyl)phenyl]pyrrolidin-1-yl]pyrimidin-4-amine] | < 0.5 | >0 | –
2 | NC(=O)Cc1ccc(CNc2ncnc(N3CCCCC3c3ccc(C(F)(F)F)cc3)c2F)cc1 (centres unmarked) [Example 308, 2-[4-[[[5-fluoro-6-[2-[4-(trifluoromethyl)phenyl]-1-piperidyl]pyrimidin-4-yl]amino]methyl]phenyl]acetamide] | < 10 | >20 | >50
3 | COCC1(CNc2ncnc(N3CCC[C@@H]3c3ccc(C(F)(F)F)cc3)c2F)CCC1 [Example 188, 5-fluoro-N-[[1-(methoxymethyl)cyclobutyl]methyl]-6-[(2R)-2-[4-(trifluoromethyl)phenyl]pyrrolidin-1-yl]pyrimidin-4-amine] | < 0.5 | >0 | –
4 | CC1(CNc2ncnc(N3CCOC[C@@H]3c3ccc(C(F)(F)F)cc3)c2F)CCCCC1O (stereo partly drawn) [Example 295, 2-[[[5-fluoro-6-[(3S)-3-[4-(trifluoromethyl)phenyl]morpholin-4-yl]pyrimidin-4-yl]amino]methyl]-2-methyl-cyclohexanol] | < 0.5 | >20 | >80
5 | CN1CC(CNc2ncnc(N3CCCC3c3ccc(C(F)(F)F)cc3)c2F)CC1=O (centres unmarked) [Example 109, 4-[[[5-fluoro-6-[2-[4-(trifluoromethyl)phenyl]pyrrolidin-1-yl]pyrimidin-4-yl]amino]methyl]-1-methyl-pyrrolidin-2-one] | < 2 | – | >20
6 | O=C(O)Cc1ccc(CNc2ncnc(N3CCC[C@@H]3c3ccc(C(F)(F)F)cc3)c2F)s1 [Example 207, 2-[5-[[[5-fluoro-6-[(2R)-2-[4-(trifluoromethyl)phenyl]pyrrolidin-1-yl]pyrimidin-4-yl]amino]methyl]-2-thienyl]acetic acid] | < 0.5 | >20 | >80
7 | COc1ccc(CN(C)c2ncnc(N3CCCC3c3ccc(C(F)(F)F)cc3)c2F)cn1 (centres unmarked) [Example 116, 5-fluoro-N-[(6-methoxy-3-pyridyl)methyl]-N-methyl-6-[2-[4-(trifluoromethyl)phenyl]pyrrolidin-1-yl]pyrimidin-4-amine] | < 1 | >20 | >50
8 | Oc1ccc(CNc2ncnc(N3CCCC3c3ccc(C(F)(F)F)cc3)c2F)cn1 (centres unmarked) [Example 100, 5-[[[5-fluoro-6-[2-[4-(trifluoromethyl)phenyl]pyrrolidin-1-yl]pyrimidin-4-yl]amino]methyl]pyridin-2-ol] | < 2 | – | >20
9 | COc1cc(C(F)(F)F)ccc1C1CCCN1c1ncnc(N[C@H](CC(C)(C)C)C(N)=O)c1F (stereo partly drawn) [Example 65, (2R)-2-[[5-fluoro-6-[2-[2-methoxy-4-(trifluoromethyl)phenyl]pyrrolidin-1-yl]pyrimidin-4-yl]amino]-4,4-dimethyl-pentanamide] | < 0.5 | – | >20
10 | COc1ccc(C[C@@H](Nc2ncnc(N3CCCC3c3ccc(C(F)(F)F)cc3)c2F)C(N)=O)cc1 (stereo partly drawn) [Example 17, (2R)-2-[[5-fluoro-6-[2-[4-(trifluoromethyl)phenyl]pyrrolidin-1-yl]pyrimidin-4-yl]amino]-3-(4-methoxyphenyl)propanamide] | < 0.5 | – | >80
11 | NC(=O)Cc1ccc(CNc2ncnc(N3CCCC3c3ccc(O)cc3)c2F)cc1 (centres unmarked) [Example 300, 2-[4-[[[5-fluoro-6-[2-(4-hydroxyphenyl)pyrrolidin-1-yl]pyrimidin-4-yl]amino]methyl]phenyl]acetamide] | < 10 | >20 | >20
12 | NC(=O)Cc1ccc(CNc2ncnc(N3CCC3c3ccc(C(F)(F)F)cc3)c2F)cc1 (centres unmarked) [Example 307, 2-[4-[[[5-fluoro-6-[2-[4-(trifluoromethyl)phenyl]azetidin-1-yl]pyrimidin-4-yl]amino]methyl]phenyl]acetamide] | < 2 | >20 | >50
13 | NC(=O)[C@@H](CC1CCNC1=O)Nc1ncnc(N2CCCC2c2ccc(C(F)(F)F)cc2)c1F (stereo partly drawn) [Example 63, (2R)-2-[[5-fluoro-6-[2-[4-(trifluoromethyl)phenyl]pyrrolidin-1-yl]pyrimidin-4-yl]amino]-3-(2-oxopyrrolidin-3-yl)propanamide] | < 2 | – | >20
14 | Cc1ccc(CNc2ncnc(N3CCC[C@@H]3c3ccc(C(F)(F)F)cc3F)c2F)cn1 [Example 210, 5-fluoro-6-[(2R)-2-[2-fluoro-4-(trifluoromethyl)phenyl]pyrrolidin-1-yl]-N-[(6-methyl-3-pyridyl)methyl]pyrimidin-4-amine] | < 1 | >50 | >80
15 | CC(C)(O)Cc1ccc(CNc2ncnc(N3CCCC3c3ccc(C(F)(F)F)cc3)c2F)cc1 (centres unmarked) [Example 98, 1-[4-[[[5-fluoro-6-[2-[4-(trifluoromethyl)phenyl]pyrrolidin-1-yl]pyrimidin-4-yl]amino]methyl]phenyl]-2-methyl-propan-2-ol] | < 1 | >20 | >80
16 | CS(=O)(=O)N1CCC(CNc2ncnc(N3CCC[C@@H]3c3ccc(C(F)(F)F)cc3)c2F)CC1 [Example 197, 5-fluoro-N-[(1-methylsulfonyl-4-piperidyl)methyl]-6-[(2R)-2-[4-(trifluoromethyl)phenyl]pyrrolidin-1-yl]pyrimidin-4-amine] | < 0.5 | >80 | >80
17 | Cc1ccc(C2CCCN2c2ncnc(NCc3ccc(CC(N)=O)cc3)c2F)o1 (centres unmarked) [Example 313, 2-[4-[[[5-fluoro-6-[2-(5-methyl-2-furyl)pyrrolidin-1-yl]pyrimidin-4-yl]amino]methyl]phenyl]acetamide] | < 0.5 | >20 | >80
18 | CCc1ccc(C2CCCN2c2ncnc(NCc3ccc(CC(N)=O)cc3)c2F)o1 (centres unmarked) [Example 316, 2-[4-[[[6-[2-(5-ethyl-2-furyl)pyrrolidin-1-yl]-5-fluoro-pyrimidin-4-yl]amino]methyl]phenyl]acetamide] | < 0.5 | >20 | >80
19 | OC1(CNc2ncnc(N3CCC[C@@H]3c3ccc(C(F)(F)F)cc3)c2F)CCOC1 (stereo partly drawn) [Example 220, 3-[[[5-fluoro-6-[(2R)-2-[4-(trifluoromethyl)phenyl]pyrrolidin-1-yl]pyrimidin-4-yl]amino]methyl]tetrahydrofuran-3-ol] | < 0.5 | >20 | >80
20 | O=S(=O)(O)c1ccc(CNc2ncnc(N3CCC[C@@H]3c3ccc(C(F)(F)F)cc3)c2F)cc1 [Example 319, 4-[[[5-fluoro-6-[(2R)-2-[4-(trifluoromethyl)phenyl]pyrrolidin-1-yl]pyrimidin-4-yl]amino]methyl]benzenesulfonic acid] | < 0.5 | – | >0
21 | Cc1ccc(CNc2ncnc(N3CCCC3(C)c3ccc(C(F)(F)F)cc3)c2F)cn1 (centres unmarked) [Example 209, 5-fluoro-N-[(6-methyl-3-pyridyl)methyl]-6-[2-methyl-2-[4-(trifluoromethyl)phenyl]pyrrolidin-1-yl]pyrimidin-4-amine] | < 1 | >20 | >50
22 | CN(C)C(=O)C1CCC(CNc2ncnc(N3CCCC3c3ccc(C(F)(F)F)cc3)c2F)O1 (centres unmarked) [Example 110, 5-[[[5-fluoro-6-[2-[4-(trifluoromethyl)phenyl]pyrrolidin-1-yl]pyrimidin-4-yl]amino]methyl]-N,N-dimethyl-tetrahydrofuran-2-carboxamide] | < 10 | – | >0
23 | O=C(O)Cc1ccc(Cn2ccc3c(N4CCC[C@@H]4c4ccc(C(F)(F)F)cc4)ncnc32)cc1 [Example 195, 2-[4-[[4-[(2R)-2-[4-(trifluoromethyl)phenyl]pyrrolidin-1-yl]pyrrolo[2,3-d]pyrimidin-7-yl]methyl]phenyl]acetic acid] | < 0.5 | >80 | –
